Test results published in patent US12180139B2, “Method for preparing aminoalkanoic acid derivative containing biphenyl group” (AMTIXBIO CO., LTD., priority 2019, dated 2024).

Legend:
L. monocytogenes (+) = test: Antibacterial MIC test (CLSI); format: cell-based; conditions: MHB liquid medium, 37° C., 24 hours
Protocol: (§1) The MIC test was conducted in accordance CLSI guidelines. […] As a positive control, Nofloxacin and Vancomycin were used.

P. acnes (+) = test: Antibacterial MIC test (CLSI); format: cell-based; conditions: MHB liquid medium, 37° C., 24 hours
Protocol: as §1

M. luteus (+) = test: Antibacterial MIC test (CLSI); format: cell-based; conditions: MHB liquid medium, 37° C., 24 hours
Protocol: as §1

S. aureus enterica (−) = test: Antibacterial MIC test (CLSI); format: cell-based; conditions: MHB liquid medium, 37° C., 24 hours
Protocol: as §1

E. coli (−) = test: Antibacterial MIC test (CLSI); format: cell-based; conditions: MHB liquid medium, 37° C., 24 hours
Protocol: as §1

B. cereus (+) = test: Antibacterial MIC test (CLSI); format: cell-based; conditions: MHB liquid medium, 37° C., 24 hours
Protocol: as §1

B. subtilis (+) = test: Antibacterial MIC test (CLSI); format: cell-based; conditions: MHB liquid medium, 37° C., 24 hours
Protocol: as §1

B. coagulans (+) = test: Antibacterial MIC test (CLSI); format: cell-based; conditions: MHB liquid medium, 37° C., 24 hours
Protocol: as §1

Candida albicans biofilm = conditions: 4, 8, 16 and 32 μg/mL, 24 hours after treatment; versus Caspofungin, Amphotericin B, Efinaconazole
C. neoformans [1] = conditions: RPMI1640 broth, 35° C., 72 hours, visual reading; expressed as a range value
Protocol: (§3) An in vitro antifungal susceptibility test was performed in accordance with the US Clinical and Laboratory Standards Institute (CLSI) guidelines to measure the degree of antifungal activity of the compounds synthesized in the Preparation Examples against opportunistic pathogenic fungi. […] The MIC value (μg/ ? ) is expressed as a range value. Specifically, Candida species and Cryptococcus neoformans were incubated in a Sabouraud dextrose agar (SDA) (Sigma-Aldrich) solid medium for 24 and 48 hours, respectively to obtain single colonies. The obtained single colonies were suspended in 0.85% physiological saline to prepare fungal cell suspension (1 to 5×10^6 cells/ ? ). Fungal cells 2000-fold diluted in RPMI1640 broth (Sigma-Aldrich) were seeded on 96-well plates (5×10^2 to 2.5×10^3 cells/ ? , 195 ? /well). Serial two-fold dilutions (128, 64, 32, 16, 8, 4, 2, 1, and 0.5 μg/ ? ) of compounds were prepared by diluting the compounds synthesized according to the above preparation examples. Then, 5 ? from each dilution was added to the well of the 96-well plate containing fungal cell suspension to give a final suspension of 200 ? per well. […] As a positive control, amphotericin B (AMB), which is highly toxic to the human body but is known as a representative antifungal agent, was used.

T. rubrum = conditions: 0.5- to 16-fold MIC, 0 to 120 hours; versus Efinaconazole, Amorolfine, Terbinafine, Ciclopirox, Amphotericin B
Protocol: Specifically, T. rubrum cells (6×10^3 cfu/ ? ) were prepared and aliquoted at 195 ? /well into 96-well plates.

C. albicans = conditions: RPMI1640 broth, 35° C., 48 hours, visual reading; expressed as a range value
Protocol: as §3

S. aureus (+) = conditions: MHB liquid medium, 37° C., 24 hours
S. epidermidis (+) = conditions: MHB liquid medium, 37° C., 24 hours
A. fumigatus [2] = conditions: visual reading; expressed as a range value
Protocol: as §3

C. glabrata [3] = conditions: RPMI1640 broth, 35° C., 48 hours, visual reading; expressed as a range value
Protocol: as §3

Candida albicans = conditions: 50 or 100 μg/mL for 30 minutes; versus Efinaconazole, Tavaborole, Terbinafine, Ciclopirox
Protocol: To evaluate fast-acting effects of Compound 74, the growth of Candida albicans was studied by treating Candida albicans with Compound 74 or commercially available drug of Efinaconazole, Tavaborole, Terbinafine, or Ciclopirox at the same concentration for the same period of time. Specifically, Candida albicans were prepared at a concentration of 2.5×10^3 cfu/ ? and aliquoted at 195 ? /well into 96-well plates. Subsequently, Candida albicans cells in 96-well plate were treated with Compound 74 or each of the commercially available comparative drugs (50 μg/ ? or 100 μg/ ? ) for 30 minutes, respectively. Next, Compound 74 treated fungal cells were seeded on YPD media (Sigma-Aldrich), and the number of single colonies grown was counted.

[4] = system: C. albicans 12-99 (Mutant); conditions: 35° C., 48 hours
Protocol: (§2) Fungal cells were spread on YPD solid media (Sigma-Aldrich) and then aliquoted into the wells of the 96-well plates (2.5×10^3 microconidia/ ? for T. rubrum and T. mentagrophytes species or was 2.5×10^3 cfu/ ? for Candida albicans, Candida glabrata and Cryptococcus neoformans species, 195 ? /well). […] The compound-treated fungal cells were incubated in a 35° C. incubator for 48 hours (Candida species) and for 72 hours (C. neoformans and Trichophyton species), respectively.

A. fumigatus [5] = system: A. fumigatus
Protocol: as §2

T. rubrum (KCCM60443) = conditions: 35° C., 72 hours
Protocol: as §2

[6] = system: T. mentagrophytes (KCCM60449); conditions: 35° C., 72 hours
Protocol: as §2

T. rubrum (KCCM60450) = conditions: 35° C., 72 hours
Protocol: as §2

C. neoformans [7] = conditions: 35° C., 72 hours; n = 10
Protocol: as §2

C. tropicalis = conditions: 35° C., 48 hours
Protocol: as §2

C. glabrata [8] = conditions: 35° C., 48 hours; n = 30
Protocol: as §2

[9] = system: C. albicans ATCC90028 (WT); conditions: 35° C., 48 hours; n = 30
Protocol: as §2

MRSA = test: Antibacterial MIC test (CLSI); format: cell-based, Methicillin-resistant Staphylococcus aureus; conditions: MHB liquid medium, 37° C., 24 hours
Protocol: as §1

interleukin 6 (IL-6) = conditions: RAW264.7 cells, compound 8 μg/mL 1 hour, then LPS 1 μg/mL 24 hours; relative to LPS without compound
Protocol: The anti-inflammatory effects of the compounds of the present invention were evaluated using RAW264.7 cells which were stimulated to secrete interleukin 6 (IL-6). Specifically, RAW264.7 cells (obtained from Korean Cell Line Bank), mouse macrophages, were inoculated into a 12-well plate at 5×10^5 cells/well and incubated at 37° C. for 16 to 24 hours. The compounds of the present invention were added to the cell culture medium containing RAW264.7 cells incubated as above at a final concentration of 0 or 8 μg/ ? , and then incubated at 37° C. for 1 hour. Next, lipopolysaccharide (LPS, Sigma-Aldrich, USA) was further added to the medium at a final concentration of 1 μg/ ? , and the medium was incubated at 37° C. for 24 hours to induce IL-6 expression. Thereafter, IL-6 levels produced by the RAW264.7 cells were measured using an ELISA kit (Komabiotech Inc. Korea) according to the manufacturer's instructions. In Table 9, IL6 levels were expressed as a relative percentage (%) between LPS-induced IL6 levels after the treatment with the compound of the present invention and LPS-induced IL6 levels without the treatment of the compound of the present invention.

| Compound | MIC L. monocytogenes (+) (L. monocytogenes (+)) [µg/mL] | MIC P. acnes (+) (P. acnes (+)) [µg/mL] | MIC M. luteus (+) (M. luteus (+)) [µg/mL] | MIC S. aureus enterica (−) (S. aureus enterica (−)) [µg/mL] | MIC E. coli (−) (E. coli (−)) [µg/mL] | MIC B. cereus (+) (B. cereus (+)) [µg/mL] | MIC B. subtilis (+) (B. subtilis (+)) [µg/mL] | MIC B. coagulans (+) (B. coagulans (+)) [µg/mL] | MIC (μg/mL) C. neoformans (C. neoformans [1]) | MIC (μg/mL) C. albicans (C. albicans) | MIC S. aureus (+) (S. aureus (+)) [µg/mL] | MIC S. epidermidis (+) (S. epidermidis (+)) [µg/mL] | MIC (μg/mL) A. fumigatus (A. fumigatus [2]) | MIC (μg/mL) C. glabrata (C. glabrata [3]) | MIC MRSA (MRSA) [µg/mL] | Relative IL-6 levels (%) (interleukin 6 (IL-6)) | further results |
| --- | --- | --- | --- | --- | --- | --- | --- | --- | --- | --- | --- | --- | --- | --- | --- | --- | --- |
| CCCC(N)C(=O)NCCc1ccc(-c2ccc(Cl)c(Cl)c2)cc1.Cl (racemic) [Compound 74, (R)/(S)-2-amino-N-(2-(3′,4′-dichloro-[1,1′-biphenyl]-4-yl)ethyl)pentanamide hydrochloride] | 8 | 8 | 8 | >32 | 32 | 16 | 8 | 2 | 0.5~4 μg/mL | 0.5~4 μg/mL | 8 | 8 | 0.5~4 μg/mL | 0.5~4 μg/mL | 8 | – | biofilm disruption (growth of Candida albicans, FIG. 3) (Candida albicans biofilm): remarkably excellent growth inhibitory effects on Candida albicans through biofilm disruption; fungicidal effects (number of single colonies grown, FIG. 2) (T. rubrum): exhibited fungicidal effects at the MIC concentration; fast-acting effects (number of single colonies grown, FIG. 1) (Candida albicans): excellent fast-acting effects; MIC C. albicans 12-99 (Mutant) [4]: 2~8 μg/mL; MIC A. fumigatus (A. fumigatus [5]): 2~8 μg/mL; MIC T. rubrum (KCCM60443) (T. rubrum (KCCM60443)): 1~4 μg/mL; MIC T. mentagrophytes (KCCM60449) [6]: 2~8 μg/mL; MIC T. rubrum (KCCM60450) (T. rubrum (KCCM60450)): 2~4 μg/mL; MIC C. neoformans (C. neoformans [7]): 2~4 μg/mL; MIC C. tropicalis (C. tropicalis): 2~4 μg/mL; MIC C. glabrata (C. glabrata [8]): 2~4 μg/mL; MIC C. albicans ATCC90028 (WT) [9]: 2~4 μg/mL |
| CCC(N)C(=O)NCCc1ccc(-c2ccc(C(F)(F)F)cc2)cc1.Cl (racemic) [Compound 76, (R)/(S)-2-amino-N-(2-(4′-(trifluoromethyl)-[1,1′-biphenyl]-4-yl)ethyl)butanamide hydrochloride] | 16 | 16 | 16 | 32 | 16 | 64 | 16 | <4 | 8~32 μg/mL | 16~64 μg/mL | 32 | 16 | 8~32 μg/mL | 8~32 μg/mL | 32 | 9.58 | – |
| CCCC(N)C(=O)NCCc1ccc(-c2ccc(C(F)(F)F)cc2)cc1.Cl (racemic) [Compound 77, (R)/(S)-2-amino-N-(2-(4′-(trifluoromethyl)-[1,1′-biphenyl]-4-yl)ethyl)pentanamide hydrochloride] | – | – | – | – | – | – | – | – | 4~16 μg/mL | 8~32 μg/mL | – | – | 8~32 μg/mL | 8~32 μg/mL | – | 5 | – |
| CCCC(NC)C(=O)NCc1ccc(-c2ccc(C(F)(F)F)cc2)cc1.Cl (racemic) [Compound 52, (R)/(S)-2-(methylamino)-N-((4′-(trifluoromethyl)-[1,1′-biphenyl]-4-yl)methyl)pentanamide hydrochloride] | – | – | – | – | – | – | – | – | 4~16 μg/mL | 8~32 μg/mL | – | – | 8~32 μg/mL | 8~32 μg/mL | – | 13 | – |
| CCC(NC)C(=O)NCCc1ccc(-c2ccc(Cl)c(Cl)c2)cc1.Cl (racemic) [Compound 83, (R)/(S)-N-(2-(3′,4′-dichloro-[1,1′-biphenyl]-4-yl)ethyl)-2-(methylamino)butanamide hydrochloride] | – | – | – | – | – | – | – | – | 2~8 μg/mL | 8~32 μg/mL | – | – | 8~32 μg/mL | 8~32 μg/mL | – | 9 | – |
